{
  "source": "patent US8466139B2",
  "about": "“Formulation” (AstraZeneca AB, priority 2000, dated 2013)",
  "key": {"[1]": {"experiment": "Dissipation of 14C labelled benzyl alcohol from the injection site", "format": "in vivo", "excerpt": "This finding is indeed surprising for the following reasons. • 1. […] It is believed that the tissue irritation/inflammation was due to the presence of fulvestrant in the form of solid particles. The release profile appeared to be determined by the extent of inflammation/irritation present at the injection site and this was variable and difficult to control."}, "[2]": {"experiment": "Solubility of fulvestrant in different solvents", "format": "physicochemical", "conditions": "Water, 25° C."}, "[3]": {"system": "human breast cancer cells", "conditions": "block of oestradiol-stimulated growth, human breast cancer cells in vitro; cited from earlier work"}, "uterus": {"system": "uterus", "conditions": "intact adult rats, cited from earlier work"}},
  "data": [
    {"smiles": "OCc1ccccc1", "note": "[^14C labelled benzyl alcohol, benzyl alcohol]", "values": [
      {"measurement": "time to removal from the body after administration", "setting": "[1]", "value": "≤ 24", "unit": "h"}
    ]},
    {"smiles": "C[C@]12CC[C@@H]3c4ccc(O)cc4C[C@@H](CCCCCCCCC[S+]([O-])CCCC(F)(F)C(F)(F)F)[C@H]3[C@@H]1CC[C@@H]2O", "note": "(stereo partly drawn) [fulvestrant, 7α-[9-(4,4,5,5,5-Pentafluoropentylsulphinyl)nonyl]oestra-1,3-5(10)-triene-3,17β-diol]", "values": [
      {"measurement": "SOLUBILITY", "setting": "[2]", "value": 0.001, "unit": "mgml^−1"},
      {"measurement": "potency and effectiveness compared with tamoxifen", "setting": "[3]", "value": "more potent and more effective than tamoxifen"},
      {"measurement": "effect on bone density", "setting": "uterus; at dose giving maximum regression of the uterus", "value": "does not adversely affect"},
      {"measurement": "regression of the uterus", "setting": "uterus", "value": "maximum regression"}
    ]}
  ]
}
